Earlier results, collected in PubChem BioAssay AID1259409 (Chemical Carcinogenesis Research Information System (CCRIS), 2018).

Tested on: rodent chemically induced tumor inhibition, incidence and multiplicity
Assay: CCRIS tumor inhibitor studies

In the case of `CC1=C(/C=C/C(C)=C/C=C/C(C)=C/C=C/C=C(C)/C=C/C=C(C)/C=C/C2=C(C)CCCC2(C)C)C(C)(C)CCC1`, the “tumour outcome (control, treated, inhibition, significance)” value (Carcinogen: DIESEL EXHAUST PARTICLES, Dose [Inhibitor]: 0, 0.02% IN HIGH FAT DIET FOR DURATION OF STUDY (STUDY DURATION: 12 MO), Route [Inhibitor]: ORAL, Species: MOUSE, Strain/Sex: ICR/MALE, Target Tissue: Type of Lesion: LUNG: TUMOR, Dose [Carcinogen]: 0.1 MG 1/WK FOR 10 WK, Promoter: NONE USED) is given as 13/30 (43%), 5/30 (17%), 60%, not calculated, the “tumour outcome (control, treated, inhibition, significance)” value (Carcinogen: DIESEL EXHAUST PARTICLES, Dose [Inhibitor]: 0, 0.02% IN HIGH FAT DIET FOR DURATION OF STUDY (STUDY DURATION: 12 MO), Route [Inhibitor]: ORAL, Species: MOUSE, Strain/Sex: ICR/MALE, Target Tissue: Type of Lesion: LUNG: TUMOR, Dose [Carcinogen]: 0.2 MG 1/WK FOR 10 WK, Promoter: NONE USED) is given as 7/29 (24%), 11/29 (38%), -58%, not calculated and the “tumour outcome (control, treated, inhibition, significance)” value (Carcinogen: DIESEL EXHAUST PARTICLES, Dose [Inhibitor]: 0, 0.02% IN HIGH FAT DIET FOR DURATION OF STUDY (STUDY DURATION: 12 MO), Route [Inhibitor]: ORAL, Species: MOUSE, Strain/Sex: ICR/MALE, Target Tissue: Type of Lesion: LYMPHATIC SYSTEM: LYMPHOMA, Dose [Carcinogen]: 0.1 MG 1/WK FOR 10 WK, Promoter: NONE USED) is given as 3/30 (10%), 9/30 (30%), -200%, not calculated. For the same compound, the “tumour outcome (control, treated, inhibition, significance)” value (Carcinogen: DIESEL EXHAUST PARTICLES, Dose [Inhibitor]: 0, 0.02% IN HIGH FAT DIET FOR DURATION OF STUDY (STUDY DURATION: 12 MO), Route [Inhibitor]: ORAL, Species: MOUSE, Strain/Sex: ICR/MALE, Target Tissue: Type of Lesion: LYMPHATIC SYSTEM: LYMPHOMA, Dose [Carcinogen]: 0.2 MG 1/WK FOR 10 WK, Promoter: NONE USED) was 8/29 (28%), 4/29 (14%), 50%, not calculated, the “tumour outcome (control, treated, inhibition, significance)” value (Carcinogen: DIETHYLNITROSAMINE, 55-18-5, Dose [Inhibitor]: 0, 0.005% IN DIET FOR DURATION OF STUDY (STUDY DURATION: 13 WKS), Route [Inhibitor]: ORAL, Species: HAMSTER, Strain/Sex: SYRIAN/MALE, Target Tissue: Type of Lesion: LARYNX/TRACHEA: PAPILLOMA, Dose [Carcinogen]: 100 MG/KG BW ONCE, Promoter: CIGARETTE SMOKE) was 13/28 (46%), 10/28 (36%), 22%, not significant and the “tumour outcome (control, treated, inhibition, significance)” value (Carcinogen: DIETHYLNITROSAMINE, 55-18-5, Dose [Inhibitor]: 0, 0.05% IN DIET FOR DURATION OF STUDY (STUDY DURATION: 13 WKS), Route [Inhibitor]: ORAL, Species: HAMSTER, Strain/Sex: SYRIAN/MALE, Target Tissue: Type of Lesion: LARYNX/TRACHEA: PAPILLOMA, Dose [Carcinogen]: 100 MG/KG BW ONCE, Promoter: CIGARETTE SMOKE) was 13/28 (46%), 11/29 (38%), 17%, not significant. For the same compound, the “tumour outcome (control, treated, inhibition, significance)” value (Carcinogen: DIETHYLNITROSAMINE, 55-18-5, Dose [Inhibitor]: 0, 0.5% IN DIET FOR 10 D THEN REDUCED TO 0.25% FOR DURATION OF STUDY (STUDY DURATION: 13 WKS), Route [Inhibitor]: ORAL, Species: HAMSTER, Strain/Sex: SYRIAN/MALE, Target Tissue: Type of Lesion: LARYNX/TRACHEA: PAPILLOMA, Dose [Carcinogen]: 100 MG/KG BW ONCE, Promoter: CIGARETTE SMOKE) was 13/28 (46%), 4/26 (15%), 67%, p< 0.05, the “tumour outcome (control, treated, inhibition, significance)” value (Carcinogen: DIETHYLNITROSAMINE, 55-18-5, Dose [Inhibitor]: 0, 1.5 MG 2/WK FOR 20 WK (STUDY DURATION: 25 WK), Route [Inhibitor]: SUBCUTANEOUS, Species: HAMSTER, Strain/Sex: SYRIAN/MALE, Target Tissue: Type of Lesion: LUNG: CARCINOMA, Dose [Carcinogen]: 17.8 MG/KG BW 2/WK FOR 20 WK, Promoter: NONE USED) was 50%, 26%, 48%, not significant and the “tumour outcome (control, treated, inhibition, significance)” value (Carcinogen: DIETHYLNITROSAMINE, 55-18-5, Dose [Inhibitor]: 0, 1.5 MG 2/WK FOR 20 WK (STUDY DURATION: 25 WK), Route [Inhibitor]: SUBCUTANEOUS, Species: HAMSTER, Strain/Sex: SYRIAN/MALE, Target Tissue: Type of Lesion: TRACHEA: PAPILLOMA, Dose [Carcinogen]: 17.8 MG/KG BW 2/WK FOR 20 WK, Promoter: NONE USED) was 95%, 100%, -5%, not significant. For the same compound, the “tumour outcome (control, treated, inhibition, significance)” value (Carcinogen: DIETHYLNITROSAMINE, 55-18-5, Dose [Inhibitor]: 0, 3 MG 2/WK FOR 20 WK (STUDY DURATION: 25 WK), Route [Inhibitor]: SUBCUTANEOUS, Species: HAMSTER, Strain/Sex: SYRIAN/MALE, Target Tissue: Type of Lesion: LUNG: CARCINOMA, Dose [Carcinogen]: 17.8 MG/KG BW 2/WK FOR 20 WK, Promoter: NONE USED) was 60%, 30%, 50%, not significant, the “tumour outcome (control, treated, inhibition, significance)” value (Carcinogen: DIETHYLNITROSAMINE, 55-18-5, Dose [Inhibitor]: 0, 3 MG 2/WK FOR 20 WK (STUDY DURATION: 25 WK), Route [Inhibitor]: SUBCUTANEOUS, Species: HAMSTER, Strain/Sex: SYRIAN/MALE, Target Tissue: Type of Lesion: TRACHEA: PAPILLOMA, Dose [Carcinogen]: 17.8 MG/KG BW 2/WK FOR 20 WK, Promoter: NONE USED) was 100%, 100%, 0%, not significant and the “tumour outcome (control, treated, inhibition, significance)” value (Carcinogen: DIMETHYLBENZ[A]ANTHRACENE, 57-97-6, Dose [Inhibitor]: 0.25 ML OF 0.015% AGENT IN ACETONE ADMINISTERED WITH PROMOTER 5/WK FOR 16 WK BEGINNING 3 WK POST CARCINOGEN DOSE (STUDY, Route [Inhibitor]: DERMAL, Species: MOUSE, Strain/Sex: ICR/FEMALE, Target Tissue: Type of Lesion: SKIN: PAPILLOMA, Dose [Carcinogen]: 0.125 MG IN 0.25 ML ACETONE ONCE, Promoter: PHENOL, 108-95-2) was 7/25 (28%), 6/28 (21%), 25%, not calculated. The “tumour outcome (control, treated, inhibition, significance)” value (Carcinogen: DIMETHYLBENZ[A]ANTHRACENE, 57-97-6, Dose [Inhibitor]: 100 MG/KG OF DIET IMMEDIATELY FOLLOWING CARCINOGEN DOSE FOR 22 WK (STUDY DURATION: 22 WK), Route [Inhibitor]: ORAL, Species: RAT, Strain/Sex: SPRAGUE-DAWLEY/MALE, Target Tissue: Type of Lesion: SALIVARY GLAND: TUMOR, Dose [Carcinogen]: 1 MG IN OLIVE OIL INJECTED INTO ONE SALIVARY GLAND ONCE, Promoter: NONE USED) was 3/9 (33%), 1/11 (9%), 73%, not significant, the “tumour outcome (control, treated, inhibition, significance)” value (Carcinogen: METHYL(ACETOXYMETHYL)NITROSAMINE, 56856-83-8, Dose [Inhibitor]: 0, 5.8 NMOL IN DRINKING WATER BEGINNING 2 WK PRIOR TO CARCINOGEN AND CONTINUED FOR STUDY DURATION, (STUDY DURATION: 13 M, Dose [Inhibitor]: 0, 5.8 NMOL IN DRINKING WATER BEGINNING 2 WK PRIOR TO CARCINOGEN AND CONTINUED FOR STUDY DURATION, (STUDY DURATION: 13 M, Route [Inhibitor]: ORAL, Species: HAMSTER, Strain/Sex: SYRIAN/FEMALE, Target Tissue: Type of Lesion: ORAL CAVITY: TUMOR, Dose [Carcinogen]: 2 MG/KG BW IN DISTILLED WATER TO RIGHT CHEEK POUCH 2/MO FOR 6 MO (TOTAL DOSE 24 MG/KG), Promoter: NONE USED) was 14/15 (93%), 4/15 (27%), 71%, p<0.001 and the “tumour outcome (control, treated, inhibition, significance)” value (Carcinogen: N-BUTYL-N-(4-HYDROXYBUTYL)NITROSAMINE, 3817-11-6, Dose [Inhibitor]: 0, 0.0025% IN DRINKING WATER FOR 12 WK BEGINNING POST CARCINOGEN TREATMENT (STUDY DURATION: 20 WK), Route [Inhibitor]: ORAL, Species: RAT, Strain/Sex: F344/MALE, Target Tissue: Type of Lesion: URINARY BLADDER: TRANSITIONAL CELL CARCINOMA, Dose [Carcinogen]: 0.05% IN DRINKING WATER FOR 8 WK, Promoter: NONE USED) was 10/12 (83%), 12/12 (100%), -20%, not significant. The “tumour outcome (control, treated, inhibition, significance)” value (Carcinogen: N-BUTYL-N-(4-HYDROXYBUTYL)NITROSAMINE, 3817-11-6, Dose [Inhibitor]: 0, 0.1% IN DIET BEGINNING 5 WK PRIOR TO CARCINOGEN TREATMENT AND CONTINUING FOR DURATION OF STUDY (STUDY DURATION: 7 MO), Route [Inhibitor]: ORAL, Species: MOUSE, Strain/Sex: B6D2F1/MALE, Target Tissue: Type of Lesion: BLADDER: CARCINOMA IN SITU, Dose [Carcinogen]: 5 MG IN SALINE SOLUTION 2/WK FOR 9 WK, Promoter: NONE USED) was 7/24 (29%), 3/24 (13%), 55%, not calculated, the “tumour outcome (control, treated, inhibition, significance)” value (Carcinogen: N-BUTYL-N-(4-HYDROXYBUTYL)NITROSAMINE, 3817-11-6, Dose [Inhibitor]: 0, 0.1% IN DIET BEGINNING 5 WK PRIOR TO CARCINOGEN TREATMENT AND CONTINUING FOR DURATION OF STUDY (STUDY DURATION: 7 MO), Route [Inhibitor]: ORAL, Species: MOUSE, Strain/Sex: B6D2F1/MALE, Target Tissue: Type of Lesion: BLADDER: TRANSITIONAL CELL CARCINOMA, Dose [Carcinogen]: 5 MG IN SALINE SOLUTION 2/WK FOR 9 WK, Promoter: NONE USED) was 8/24 (33%), 5/24 (21%), 36%, not calculated and the “tumour outcome (control, treated, inhibition, significance)” value (Carcinogen: N-BUTYL-N-(4-HYDROXYBUTYL)NITROSAMINE, 3817-11-6, Dose [Inhibitor]: 0, 0.1% IN DIET BEGINNING 5 WK PRIOR TO CARCINOGEN TREATMENT AND CONTINUING FOR DURATION OF STUDY (STUDY DURATION: 7 MO), Route [Inhibitor]: ORAL, Species: MOUSE, Strain/Sex: B6D2F1/MALE, Target Tissue: Type of Lesion: BLADDER: TUMOR, Dose [Carcinogen]: 5 MG IN SALINE SOLUTION 2/WK FOR 9 WK, Promoter: NONE USED) was 15/24 (63%), 8/24 (33%), 48%, p<0.05.
